In the NIST ThermoML archive (doi:10.1016/j.jct.2015.06.014):

Assay: molar heat capacity at constant pressure
Conditions: Liquid, Large sample (1 g) DSC

FC(F)(F)CC(F)(F)F [1,1,1,3,3,3-hexafluoropropane]
molar heat capacity at constant pressure [J/K/mol]
Conditions	1480 kPa	2490 kPa	3540 kPa	4560 kPa	5410 kPa
315.15 K	195.67	193.7	192.48	191.42	190.05
320.15 K	198.71	196.59	194.91	193.7	192.78
325.15 K	202.06	199.78	197.95	196.43	195.67
330.15 K	205.71	203.28	201.45	199.78	199.02
335.15 K	209.36	207.08	205.1	203.28	202.21
340.15 K	213.46	210.73	208.6	206.77	205.56
345.15 K	218.02	214.83	212.25	210.27	208.9
350.15 K	223.34	219.24	216.35	214.07	212.4
355.15 K	–	224.56	221.22	218.33	216.35
360.15 K	–	231.1	226.84	223.5	221.06
365.15 K	–	239.92	233.53	230.49	227.45

FC(F)CC(F)(F)F [1,1,1,3,3-pentafluoropropane]
molar heat capacity at constant pressure [J/K/mol]
Conditions	1590 kPa	2520 kPa	3480 kPa	4530 kPa	5500 kPa
315.15 K	184.58	184.05	183.78	182.98	182.44
320.15 K	185.79	185.12	184.72	183.91	183.24
325.15 K	187.8	186.73	186.19	185.39	184.58
330.15 K	191.02	189.95	189.01	188.07	187.13
335.15 K	195.31	194.37	193.16	191.82	191.02
340.15 K	200.13	199.2	197.85	196.25	195.44
345.15 K	204.83	204.02	202.55	200.94	200.13
350.15 K	209.52	208.44	207.1	205.5	204.56
355.15 K	214.07	212.73	211.66	210.05	208.98
360.15 K	219.3	217.69	216.76	214.74	213.67
365.15 K	226.54	224.26	222.65	220.51	219.44
